Laboratory results reported in ChEMBL document CHEMBL3885861, “Open TG-GATES”.

Species: Rattus norvegicus
Assay: Open TG-GATES - Regimen: Daily Repeat
Assay type: toxicity, organism-based, Sprague-Dawley
Design: regimen Daily Repeat, gender Male, age 6 weeks
Settings: in vivo, po, 0 mg/kg, route gavage, dose level Control; for APTT / Bas / Eos / Fbg / Hb / Ht / Lym / MCH / MCHC / MCV / Mono / Neu / PT / Plat / RBC / Ret / WBC: tissue Blood; for KIDNEY_L / KIDNEY_R / KIDNEY_TOTAL: tissue Kidney; for LIVER: tissue Liver; for A/G / ALP / ALT / AST / BUN / CRE / Ca / Cl / DBIL / GLC / IP / K / LDH / Na / PL / RALB / TBIL / TC / TG / TP / gamma-GTP: tissue Plasma

O=C(N[C@H](CO)[C@H](O)c1ccc([N+](=O)[O-])cc1)C(Cl)Cl [CHLORAMPHENICOL]
TERMINAL_BW (72 h, time 3 day): 250.4 g | APTT (72 h, time 3 day): 17.1 s | Bas (72 h, time 3 day): 0% | Eos (72 h, time 3 day): 1.2% | Fbg (72 h, time 3 day): 270.4 mg/dL | Hb (72 h, time 3 day): 13.1 g/dL | Ht (72 h, time 3 day): 40.4% | Lym (72 h, time 3 day): 71.6% | MCH (72 h, time 3 day): 21.5 pg | MCHC (72 h, time 3 day): 32.4% | MCV (72 h, time 3 day): 66.2 fL | Mono (72 h, time 3 day): 3% | Neu (72 h, time 3 day): 23.8% | PT (72 h, time 3 day): 14.4 s | Plat (72 h, time 3 day): 109.8 x10_4/uL | RBC (72 h, time 3 day): 611.2 x10_4/ul | Ret (72 h, time 3 day): 7% | WBC (72 h, time 3 day): 78.3 x10_2/uL | KIDNEY_L (72 h, time 3 day): 1.1 g | KIDNEY_R (72 h, time 3 day): 1.1 g | KIDNEY_TOTAL (72 h, time 3 day): 2.2 g | LIVER (72 h, time 3 day): 12.4 g | A/G (72 h, time 3 day): 0.9 | ALP (72 h, time 3 day): 1702 IU/L | ALT (72 h, time 3 day): 44 IU/L | AST (72 h, time 3 day): 66.4 IU/L | BUN (72 h, time 3 day): 15 mg/dL | CRE (72 h, time 3 day): 0.2 mg/dL | Ca (72 h, time 3 day): 11.3 mg/dL | Cl (72 h, time 3 day): 105 meq/L | DBIL (72 h, time 3 day): 0.022 mg/dL | GLC (72 h, time 3 day): 186.8 mg/dL | IP (72 h, time 3 day): 7.1 mg/dL | K (72 h, time 3 day): 4.1 meq/L | LDH (72 h, time 3 day): 80.8 IU/L | Na (72 h, time 3 day): 140.4 meq/L | PL (72 h, time 3 day): 154 mg/dL | RALB (72 h, time 3 day): 2.7 g/dL | TBIL (72 h, time 3 day): 0.048 mg/dL | TC (72 h, time 3 day): 78.4 mg/dL | TG (72 h, time 3 day): 127.6 mg/dL | TP (72 h, time 3 day): 5.7 g/dL | gamma-GTP (72 h, time 3 day): 1.2 IU/L | TERMINAL_BW ([…], time 7 day): 289.7 g | TERMINAL_BW ([…], time 14 day): 334.8 g | TERMINAL_BW ([…], time 28 day): 425.6 g | APTT ([…], time 7 day): 17.6 s | Bas ([…], time 7 day): 0% | Eos ([…], time 7 day): 0.8% | Fbg ([…], time 7 day): 274.8 mg/dL | Hb ([…], time 7 day): 13.7 g/dL | Ht ([…], time 7 day): 42% | Lym ([…], time 7 day): 77.8% | MCH ([…], time 7 day): 21.4 pg | MCHC ([…], time 7 day): 32.6% | MCV ([…], time 7 day): 65.7 fL | Mono ([…], time 7 day): 2.6% | Neu ([…], time 7 day): 18.2% | PT ([…], time 7 day): 14.1 s | Plat ([…], time 7 day): 131.7 x10_4/uL | RBC ([…], time 7 day): 640.6 x10_4/ul | Ret ([…], time 7 day): 5.6% | WBC ([…], time 7 day): 92.1 x10_2/uL | APTT ([…], time 14 day): 16.9 s | Bas ([…], time 14 day): 0% | Eos ([…], time 14 day): 1% | Fbg ([…], time 14 day): 272 mg/dL | Hb ([…], time 14 day): 14.6 g/dL | Ht ([…], time 14 day): 44.5% | Lym ([…], time 14 day): 78.4% | MCH ([…], time 14 day): 20.3 pg | MCHC ([…], time 14 day): 32.6% | MCV ([…], time 14 day): 62.3 fL | Mono ([…], time 14 day): 2.2% | Neu ([…], time 14 day): 18% | PT ([…], time 14 day): 14.8 s | Plat ([…], time 14 day): 122.4 x10_4/uL | RBC ([…], time 14 day): 715.4 x10_4/ul | Ret ([…], time 14 day): 3.8% | WBC ([…], time 14 day): 90.5 x10_2/uL | APTT ([…], time 28 day): 18.3 s | Bas ([…], time 28 day): 0% | Eos ([…], time 28 day): 1.6% | Fbg ([…], time 28 day): 259 mg/dL | Hb ([…], time 28 day): 15.5 g/dL | Ht ([…], time 28 day): 45.1% | Lym ([…], time 28 day): 77.4% | MCH ([…], time 28 day): 20 pg | MCHC ([…], time 28 day): 34.3% | MCV ([…], time 28 day): 58.3 fL | Mono ([…], time 28 day): 1.8% | Neu ([…], time 28 day): 18.4% | PT ([…], time 28 day): 14.8 s | Plat ([…], time 28 day): 93.9 x10_4/uL | RBC ([…], time 28 day): 773 x10_4/ul | Ret ([…], time 28 day): 2.2% | WBC ([…], time 28 day): 79.4 x10_2/uL | KIDNEY_L ([…], time 7 day): 1.2 g | KIDNEY_R ([…], time 7 day): 1.2 g | KIDNEY_TOTAL ([…], time 7 day): 2.4 g | KIDNEY_L ([…], time 14 day): 1.3 g | KIDNEY_R ([…], time 14 day): 1.3 g | KIDNEY_TOTAL ([…], time 14 day): 2.6 g | KIDNEY_L ([…], time 28 day): 1.4 g | KIDNEY_R ([…], time 28 day): 1.4 g | KIDNEY_TOTAL ([…], time 28 day): 2.8 g | LIVER ([…], time 7 day): 13.8 g | LIVER ([…], time 14 day): 13.9 g | LIVER ([…], time 28 day): 17 g | A/G ([…], time 7 day): 0.9 | ALP ([…], time 7 day): 1839.2 IU/L | ALT ([…], time 7 day): 44.4 IU/L | AST ([…], time 7 day): 69.4 IU/L | BUN ([…], time 7 day): 15.4 mg/dL | CRE ([…], time 7 day): 0.2 mg/dL | Ca ([…], time 7 day): 11.3 mg/dL | Cl ([…], time 7 day): 106.4 meq/L | DBIL ([…], time 7 day): 0.024 mg/dL | GLC ([…], time 7 day): 188.8 mg/dL | IP ([…], time 7 day): 7.5 mg/dL | K ([…], time 7 day): 3.9 meq/L | LDH ([…], time 7 day): 64.2 IU/L | Na ([…], time 7 day): 143.2 meq/L | PL ([…], time 7 day): 162.2 mg/dL | RALB ([…], time 7 day): 2.7 g/dL | TBIL ([…], time 7 day): 0.052 mg/dL | TC ([…], time 7 day): 79 mg/dL | TG ([…], time 7 day): 140.4 mg/dL | TP ([…], time 7 day): 5.9 g/dL | gamma-GTP ([…], time 7 day): 1.2 IU/L | A/G ([…], time 14 day): 0.8 | ALP ([…], time 14 day): 1466.2 IU/L | ALT ([…], time 14 day): 37.2 IU/L | AST ([…], time 14 day): 63.6 IU/L | BUN ([…], time 14 day): 17.2 mg/dL | CRE ([…], time 14 day): 0.2 mg/dL | Ca ([…], time 14 day): 11.1 mg/dL | Cl ([…], time 14 day): 107.2 meq/L | DBIL ([…], time 14 day): 0.024 mg/dL | GLC ([…], time 14 day): 187.6 mg/dL | IP ([…], time 14 day): 6.5 mg/dL | K ([…], time 14 day): 4.5 meq/L | LDH ([…], time 14 day): 59 IU/L | Na ([…], time 14 day): 143 meq/L | PL ([…], time 14 day): 151.6 mg/dL | RALB ([…], time 14 day): 2.7 g/dL | TBIL ([…], time 14 day): 0.05 mg/dL | TC ([…], time 14 day): 63.6 mg/dL | TG ([…], time 14 day): 189.6 mg/dL | TP ([…], time 14 day): 6 g/dL | gamma-GTP ([…], time 14 day): 1 IU/L | A/G ([…], time 28 day): 0.8 | ALP ([…], time 28 day): 1089.6 IU/L | ALT ([…], time 28 day): 36.4 IU/L | AST ([…], time 28 day): 60 IU/L | BUN ([…], time 28 day): 17 mg/dL | CRE ([…], time 28 day): 0.2 mg/dL | Ca ([…], time 28 day): 11 mg/dL | Cl ([…], time 28 day): 104.4 meq/L | DBIL ([…], time 28 day): 0.018 mg/dL | GLC ([…], time 28 day): 193.4 mg/dL | IP ([…], time 28 day): 6.2 mg/dL | K ([…], time 28 day): 3.7 meq/L | LDH ([…], time 28 day): 47.2 IU/L | Na ([…], time 28 day): 143.8 meq/L | PL ([…], time 28 day): 141.4 mg/dL | RALB ([…], time 28 day): 2.7 g/dL | TBIL ([…], time 28 day): 0.054 mg/dL | TC ([…], time 28 day): 66 mg/dL | TG ([…], time 28 day): 136.6 mg/dL | TP ([…], time 28 day): 6.3 g/dL | gamma-GTP ([…], time 28 day): 1 IU/L
